Measured values as given in patent US6413975B1, “Purine derivatives having phosphodiesterase iv inhibition activity” (Euro-Celtique, S.A., priority 1999, dated 2002).
Structures can show the parent of a compound that is named as a salt.

These compounds were tested on Type IV PDE (assay: PDE IV inhibition: hydrolysis of [3H]-cyclic AMP by isolated Type IV PDE). Details: adenines, Table 4; cyclic AMP 0.2 μM; read-out: calc PDE IV IC50.
Assay type: biochemical, bovine
Experimental: The Type IV PDE is isolated from bovine tracheal smooth muscle using a procedure similar to that previously described by Silver, P. J., Hamel, L. T., Perrone, M. H. Bentley, R. G. Bushover, C. R., Evans, D. B.: Eur. J. Pharmacol. 150:85,1988.(1). Briefly, smooth muscle from bovine trachea is minced and homogenized using a polytron in 10 volumes of an extraction buffer containinhg 10 mM Tris-acetate (pH 7.5), 2 mM magnesium chloride, 1 mM dithiothreitol and 2,000 units/ml of aprotinin. This and all subsequent procedures are performed at 0-4° C. The homogenate is sonicated and then centrifiged at 48,000×g for 30 minutes. The resulting supernatant is applied to a DEAE Trisacryl M column previously equilibrated with sodium acetate and dithiothreitol. After applications of the sample, the column is washed with sodium acetate/dithiothreitol, after which the different forms of PDE are eluted from the column using a linear Tris-HCl/NaCl gradient. Fractions containing Type IV PDE are collected, dialyzed and concentrated to 14% of the original volume. The concentrated fractions are diluted to 50% with ethylene glycol and stored at -20° C.
Enzyme activity is assessed by measuring the hydrolysis of [^3H]-cyclic AMP, as described by Thompson, W. J., Teraski, W. L., Epstein, P. N., Strada, S. J.: Adv. Cyclic Nucleotide Res. 10:69, 1979. The cyclic AMP concentration used in this assay is 0.2 μM, which approximates the Km value. Protein concentration is adjusted to ensure that no more than 15% of the available substrate is hydrolyzed during the incubation period.
All test compounds are dissolved in dimethyl sulfoxide (final concentration of 2.5%). This concentration of dimethyl sulfoxide inhibits enzyme activity by approximately 10%.

IC50 [µM] | SMILES
62.4 | CCn1cnc(NCc2ccccc2)c2nc(C3CCCC3)nc1-2 [3-ethyl-8-cyclopentyl-6-benzylamino-3H-purine hydrochloride]
28.3 | CCNc1ncn(CC)c2nc(C3CCCC3)nc1-2 [3-ethyl-8-cyclopentyl-6-ethylamino-3H-purine hydrochloride]
28.9 | CCn1cnc(NCc2ccccc2)c2nc(C(C)C)nc1-2 [3-ethyl-8-isopropyl-6-benzylamino-3H-purine hydrochloride]
52.2 | CCNc1ncn(CC)c2nc(C(C)C)nc1-2 [3-ethyl-8-isopropyl-6-ethylamino-3H-purine hydrochloride]
34.1 | CCCCCCn1cnc(NC)c2ncnc1-2 [3-hexyl-6-methylamino-3H-purine hydrochloride]

Same assay, conditions: adenines, Table 7; read-out: calc PDE IV IC50

IC50 [µM] | SMILES
4.46 | CCNc1ncn(CCc2ccc(Cl)cc2)c2nc(C(C)C)nc1-2 [3-{2-(4-chlorophenyl)-ethyl]-6-ethylamino-8-isopropyl-3H-purine]
1.85 | COc1ccc(Cn2cnc(N)c3nc(C(C)(C)OCc4ccc(F)cc4)nc2-3)cc1OC [6-Amino-3-(3,4-dimethoxybenzyl)-8-(1-(4-fluorobenzyloxy-1-methyl-ethyl)-3H-purine Hydrochloride]
3.7 | C=C(C)c1nc2c(N)ncn(Cc3ccc(OC)c(OC)c3)c-2n1 [6-Amino-3-(3,4-dimethyoxybenzyl)-8-(1-methylethenyl)-3H-purine]
0.091 | C=C(C)c1nc2c(N)ncn(Cc3ccc(OC)c(OC4CCCC4)c3)c-2n1 [6-Amino-3-(3-cyclopentyloxy-4-methoxy-benzyl)-8-(1-methylethenyl)-3H-purine]
0.31 | COc1ccc(Cn2cnc(N)c3ncnc2-3)cc1OC1CCCC1 [6-Amino-3-(3-cyclopentyloxy-4-methoxybenzyl)-3H-purine]
0.94 | COc1ccc(Cn2cnc(N)c3nc(C(C)(C)OCc4ccccc4)nc2-3)cc1OC [6-Amino-8-(1-benzyloxy-1-methyl-ethyl)-3-(34-dimethoxybenzyl)-3H-purine Hydrochloride]
385 | CCNc1ncn(Cc2cc[n+]([O-])cc2)c2nc(C(C)C)nc1-2 [6-Ethylamino-3-(1-oxopyridin-4-yl-methyl)-8-isopropyl-3H-purine]
6.6 | CCNc1ncn(Cc2ccc(OC)c(OCC3CCN(C)CC3)c2)c2nc(C(C)C)nc1-2 [6-Ethylamino-3-[3-(1-methylpiperidin-4-yl-methoxy)-4-methoxy-benzy]-8-isopropyl-3H-purine]
8.95 | CCNc1ncn(Cc2ccc(OC)c(OCCN(C)C)c2)c2nc(C(C)C)nc1-2 [6-Ethylamino-3-[3-(2,2-dimethylaminoethoxy-4-methoxy)]-8-isopropyl-3H-purine]
2.6 | CCNc1ncn(Cc2ccc(OC)c(OC3CCC(O)C3)c2)c2nc(C(C)(C)O)nc1-2 (centres unmarked) [6-Ethylamino-3-[3-(3-hydroxycyclopentyloxy)-4-methoxybenzyl)]-8-(1-hydroxy-1-methylethyl)-3H-purine]
12.5 | CCNc1ncn(Cc2ccc(OC)c(OCC3CCCC3)c2)c2nc(C(C)C)nc1-2 [6-Ethylamino-3-[3-cyclopentylmethoxy-4-methoxy-benzyl]-8-isopropyl-3H-purine]
4.5 | CCNc1ncn(Cc2ccc(OC)c(OCc3cc[n+]([O-])cc3)c2)c2nc(C(C)C)nc1-2 [6-Ethylamino-3-[(3-pyridin-4-yl-methoxy)N-oxide-4-methoxy]-8-isopropyl-3H-purine]
24.5 | CCNc1ncn(Cc2ccc(OC)c(OCc3ccncc3)c2)c2nc(C(C)C)nc1-2 [6-Ethylamino-8-isopropyl-3-[3-(pyridin-4-yl-methoxy)-4-methoxy-benzyl]-3H-purine]
4.1 | CC(C)c1nc2c(N)ncn(Cc3ccc4c(c3)OCO4)c-2n1 [6-amino-3(3,4-methylenedioxybenzyl)-8-isopropyl-3H-purine]
0.92 | COc1ccc(Cn2cnc(N)c3nc(C(C)C)nc2-3)cc1OC [6-amino-3-(3,4-dimethoxybenzyl)-8-isopropyl-3H-purine]
0.72 | CC(C)(OCc1ccc(F)cc1)c1nc2c(N)ncn(Cc3ccc4c(c3)OCO4)c-2n1 [6-amino-3-(3,4-methylenedioxybenzyl)-8-[1-(4-fluorobenzyloxy)-1-methyl-ethyl]-3H-purine]
15.1 | COc1ccc(Cn2cnc(N)c3nc(C(C)C)nc2-3)cc1O [6-amino-3-(3-hydroxy-4-methoxy)-benzyl)-8-isopropyl-3H-purine]
20.8 | CC(C)c1nc2c(N)ncn(Cc3ccc(Cl)cc3)c-2n1 [6-amino-3-(4-chlorobenzyl)-8-isopropyl-3H-purine]
6.4 | COc1ccc(Cn2cnc(N)c3nc(C(C)C)nc2-3)cc1OCc1ccccc1 [6-amino-3-((3-benzyloxy-4-methoxy)-bezyl)-8-isopropyl-3H-purine]
3.12 | COc1ccc(Cn2cnc(N)c3nc(C(C)(C)OCc4ccccc4)nc2-3)cc1OCc1ccccc1 [6-amino-3-[(3-benzyloxy-4-methoxy)benzyl]-8-[(1-benzyloxy-1-methyl)ethyl]-3H-purine]
0.25 | COc1ccc(Cn2cnc(N)c3nc(C(C)(C)O)nc2-3)cc1OC1CCCC1 [6-amino-3-[(3-cyclopentyloxy-4-methoxy)benzyl]-8-[(1-hydroxy-1-methyl)ethyl]-3H-purine]
23.2 | CC(C)c1nc2c(N)ncn(CC3CCCC3)c-2n1 [6-amino-3-cyclopentylmethyl-8-isopropyl-3H-purine]
0.31 | CCNc1nc(Cc2ccc(OC)c(OC)c2)[nH]c2nc(C(C)C)nc1-2 [6-ethylamino-2-(3,4-dimethoxybenzyl)-8-isopropyl-3H-purine]
0.44 | CCNc1ncn(Cc2ccc3c(c2)OCO3)c2nc(C(C)C)nc1-2 [6-ethylamino-3-(3-,4-methylenedioxybenzyl)-8-isopropyl-3H-purine]
2.73 | CCNc1ncn(Cc2ccc(OC)c(O)c2)c2nc(C(C)C)nc1-2 [6-ethylamino-3-(3-hydroxy-4-methoxybenzyl)-8-isopropyl-3H-purine]
1.85 | CCNc1ncn(Cc2ccc(F)cc2)c2nc(C(C)C)nc1-2 [6-ethylamino-3-(4-fluorobenzyl)-8-isopropyl-3H-purine]
0.66 | CCNc1ncn(Cc2ccc(OC)c(OC3CCCC3)c2)c2nc(C(C)C)nc1-2 [6-ethylamino-3-[(3-cyclopentyloxy-4-methoxy)benzyl]-8-isopropyl-3H-purine]
6.5 | CCNc1ncn(Cc2ccc(OC)c(O)c2)c2nc(C(C)(C)O)nc1-2 [6-ethylamino-3-[(3-hydroxy-4-methoxy)benzyl]-8-[(1-hydroxy-1-methyl)ethyl]- -3H-purine]

SMILES | IC50 [µM]
CCCCOc1cc(Cn2cnc(NCC)c3nc(C(C)C)nc2-3)ccc1OC [6-Ethylamino-3-(3-butoxy-4-methoxy-benzyl)-8-isopropyl-3H purine] | 1.4
CCNc1ncn(Cc2ccc(OC)c(OC3CN4CCC3CC4)c2)c2nc(C(C)C)nc1-2 (centres unmarked) [6-Ethylamino-3-[3-(2,2,2)-azabicyclooctan-3-yloxy)-4-methoxy]-8-isopropyl-3H-purine] | 2.05
CCNc1ncn(Cc2ccc(OC)c(O[C@@H]3C[C@H]4CC[C@@H](C3)N4C)c2)c2nc(C(C)C)nc1-2 [6-Ethylamino-3-[(exo-8-methyl-8-azabicyclo(3,2,1)-octan-3-yl-oxy)-4-methoxy-benzy]-8-isopropyl-3-H-purine] | 6.02
COc1ccc(Cn2cnc(N)c3nc(C(C)(C)O)nc2-3)cc1OCCCCO [6-amino-3-[3-(4-hydroxybutoxy-4-methoxy)benzyl]-8-(1-hydroxy-1-methylethyl)-3H-purine hydrochloride] | 17.1
COc1ccc(Cn2cnc(N)c3nc(C(C)C)nc2-3)cc1OCCCCO [6-amino-8-isopropyl-3-[(4-methoxy-3-([(4-hydroxybutoxy))benzyl]-3H-purine] | 4.2

Same assay, conditions: read-out: PDE IV I50

IC50 [µM] | SMILES
0.03 | CCCn1cnc(NC2CCCC2)c2nc(C3CC3)nc1-2 [6-Cyclopentylamino-8-cyclopropyl-3-propyl-3H-purine Hydrochloride]
7.41 | CCCn1c(=S)nc(NC2CCCC2)c2[nH]c(C3CC3)nc21 [6-cyclopentylamino-8-cyclopropyl-3,7-dihydro-3-propyl-2-thio-2H-purin-2-one hydrochloride]

Same assay, conditions: thioisoguanines, Table 2; cyclic AMP 0.2 μM; read-out: Calc IC50 PDE IV

IC50 [µM] | SMILES
39.4 | CCCn1c(=S)nc(N)c2[nH]c(C3CC3)nc21 [6-amino-8-cyclopropyl-3,7-dihydro-3 propyl-2-thio-2H-purin-2-one]
33.6 | CCCn1c(=S)nc(NCc2ccccc2)c2[nH]c(C3CC3)nc21 [6-benzylamino-8-(cyclopropyl)-3,7-dihydro-3-propyl-2-thio-2H-purin-2-one hydrochloride]
24.5 | CCCCNc1nc(=S)n(CCC)c2nc(C3CC3)[nH]c12 [6-butylamino-8-cyclopropyl-3,7-dihydro-3-propyl-2-thio-2H-purin-2-one]
45.1 | CCCn1c(=S)nc(NC2CCCC2)c2[nH]c(C(C)C)nc21 [6-cyclopentylamino-3,7-dihydro-8-isopropyl-3-propyl-2-thio-2H-purin-2-one]
